Measured values published in the supplement of paper PMC10627819.

Legend:
S. aureus Newman = assay: Bliss interaction score (quartile over a dose matrix) (fitness difference); higher = more antagonism (negative = synergy)
Summary of the method: (§1)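 Fitness was derived from optical density at entry into stationary phase, divided by the robust mean of the no-drug wells on the same plate. That reading was taken as OD595, and the ratio was capped at 1. Single-drug fitness was inferred from the combination data. The Bliss score, observed fitness minus the expected product of single-drug fitness, was summarised as quartiles over technical, biological and donor/recipient replicates.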

B. subtilis 168 [1] = assay: as above
Summary of the method: as §1

S. pneumoniae D39V [2] = assay: as above
Summary of the method: as §1

S. aureus DSM 20231 = assay: as above
Summary of the method: as §1

B. subtilis 168 [3] = assay: fitness (endpoint OD595 vs no drug) (fraction); higher = more growth
Summary of the method: (§2)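 Fitness was measured as bacterial growth in 384-well plates inoculated at OD595 0.01 (30 µl, or 55 µl for S. pneumoniae). Media were TSB, LB Lennox or CY, at 37 °C. OD595 was read every 30 min for 14 h and background-subtracted against the first reading. Fitness is OD595 at the transition into stationary phase divided by the robust mean of no-drug control wells, capped at 1.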

S. pneumoniae D39V [4] = assay: as above
Summary of the method: as §2
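Throughout, for Bliss interaction score (quartile over a dose matrix): first quartile when negative (synergy) and third quartile when positive (antagonism).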

CCC[C@@H]1C[C@@H](C(=O)N[C@@H]([C@H]2O[C@H](SC)[C@H](O)[C@@H](O)[C@H]2O)[C@@H](C)O)N(C)C1 [Lincomycin] + CN(C)C(=O)C(CCN1CCC(O)(c2ccc(Cl)cc2)CC1)(c1ccccc1)c1ccccc1 [Loperamide]
Conditions	Bliss interaction score
B. subtilis 168 [1]	-0.175
S. aureus DSM 20231	-0.058
S. aureus Newman	-0.0788
S. pneumoniae D39V [2]	0.187

Conditions	fitness
B. subtilis 168 [3], first compound 0.1 µg/mL, partner 100 µg/mL	0.0294
B. subtilis 168 [3], first compound 0.2 µg/mL, partner 100 µg/mL	0.0794
B. subtilis 168 [3], first compound 0.4 µg/mL, partner 100 µg/mL	0.0368
S. pneumoniae D39V [4], first compound 0.2 µg/mL, partner 17.14 µg/mL	0.799
S. pneumoniae D39V [4], first compound 0.2 µg/mL, partner 34.28 µg/mL	0.811
S. pneumoniae D39V [4], first compound 0.215 µg/mL, partner 20 µg/mL	0.902
S. pneumoniae D39V [4], first compound 0.215 µg/mL, partner 40 µg/mL	0.911
S. pneumoniae D39V [4], first compound 0.215 µg/mL, partner 80 µg/mL	0.897
S. pneumoniae D39V [4], first compound 0.4 µg/mL, partner 17.14 µg/mL	0.725
S. pneumoniae D39V [4], first compound 0.4 µg/mL, partner 34.28 µg/mL	0.685
S. pneumoniae D39V [4], first compound 0.43 µg/mL, partner 20 µg/mL	0.827
S. pneumoniae D39V [4], first compound 0.43 µg/mL, partner 40 µg/mL	0.83
S. pneumoniae D39V [4], first compound 0.43 µg/mL, partner 80 µg/mL	0.809
S. pneumoniae D39V [4], first compound 0.8 µg/mL, partner 17.14 µg/mL	0.535
S. pneumoniae D39V [4], first compound 0.8 µg/mL, partner 34.28 µg/mL	0.44
S. pneumoniae D39V [4], first compound 0.86 µg/mL, partner 20 µg/mL	0.599
S. pneumoniae D39V [4], first compound 0.86 µg/mL, partner 40 µg/mL	0.632
S. pneumoniae D39V [4], first compound 0.86 µg/mL, partner 80 µg/mL	0.525

S. pneumoniae D39V [4], partner 68.57 µg/mL, one replicate
Conditions	fitness
first compound 0.2 µg/mL	0.87
first compound 0.4 µg/mL	0.769
first compound 0.8 µg/mL	0.54

CCC[C@@H]1C[C@@H](C(=O)N[C@@H]([C@H]2O[C@H](SC)[C@H](O)[C@@H](O)[C@H]2O)[C@@H](C)O)N(C)C1 [Lincomycin] + CN(C)c1cc(NC(=O)CNC(C)(C)C)c(O)c2c1C[C@H]1C[C@H]3[C@H](N(C)C)C(O)=C(C(N)=O)C(=O)[C@@]3(O)C(O)=C1C2=O [Tigecycline]
Conditions	Bliss interaction score
B. subtilis 168 [1]	-0.076
S. aureus DSM 20231	-0.213
S. aureus Newman	0.0588
S. pneumoniae D39V [2]	-0.133

fitness
Conditions	first compound 0.1 µg/mL	first compound 0.2 µg/mL	first compound 0.215 µg/mL	first compound 0.4 µg/mL	first compound 0.43 µg/mL	first compound 0.8 µg/mL	first compound 0.86 µg/mL
B. subtilis 168 [3], partner 0.039 µg/mL	0.894	0.865	–	0.979	–	–	–
B. subtilis 168 [3], partner 0.078 µg/mL	0.953	0.861	–	0.897	–	–	–
B. subtilis 168 [3], partner 0.156 µg/mL	0.924	0.867	–	0.846	–	–	–
S. pneumoniae D39V [4], partner 0.65 µg/mL	–	0.637	0.804	0.572	0.745	0.275	0.238
S. pneumoniae D39V [4], partner 1.3 µg/mL	–	0.63	0.789	0.578	0.694	0.314	0.213
S. pneumoniae D39V [4], partner 2.6 µg/mL	–	0.618	0.802	0.572	0.648	0.186	0.156

fitness, B. subtilis 168 [3], one replicate
Conditions	first compound 0.4 µg/mL	first compound 0.8 µg/mL	first compound 1.6 µg/mL
partner 0.125 µg/mL	0.977	≥ 1	0.944
partner 0.25 µg/mL	0.856	0.886	0.845
partner 0.5 µg/mL	0.867	0.888	0.907
